Experimental data reported in ChEMBL document CHEMBL3822445, “Histone demethylating agents as potential S-adenosyl-l-methionine-competitors” (Medchemcomm, 2016).
Calls of active or inactive are those of the source. No cut-off for these calls is given here.

What was measured:
MCF7 [1] = experiment: Inhibition of DNA methylation in human MCF7 cells assessed as reduction in H3K27me3 levels at 15 uM after 48 hrs by Western blot analysis; assay type: cell-based
MCF7 [2] = experiment: Induction of apoptosis in human MCF7 cells assessed as viable cells at 15 uM after 72 hrs by AnnexinV-FITC staining based flow cytometry (reference value: 60.5 +/- 6 %); assay type: functional; settings: MCF7, 72 h, read-out: Activity
[3] = Antiproliferative activity against human H460 cells after 48 to 72 hrs by MTT assay; assay type: functional, cell-based; settings: NCI-H460
MSTO-211H = experiment: Antiproliferative activity against human MSTO-211H cells after 48 to 72 hrs by MTT assay; assay type: functional, cell-based
MCF7 [4] = experiment: Cell cycle arrest in human MCF7 cells assessed as accumulation at G0/G1 phase at 15 uM after 24 hrs by flow cytometry relative to control; assay type: functional
MCF7 [5] = experiment: Induction of apoptosis in human MCF7 cells assessed as necrotic cells at 15 uM after 48 hrs by AnnexinV-FITC staining based flow cytometry (reference value: 10.2 +/- 1.9 %); assay type: functional
MCF7 [6] = experiment: Induction of apoptosis in human MCF7 cells assessed as early apoptotic cells at 15 uM after 72 hrs by AnnexinV-FITC staining based flow cytometry (reference value: 20.1 +/- 7.3 %); assay type: functional
MCF7 [7] = experiment: Induction of apoptosis in human MCF7 cells assessed as early apoptotic cells at 15 uM after 48 hrs by AnnexinV-FITC staining based flow cytometry (reference value: 7.8 +/- 5.3 %); assay type: functional
MCF7 [8] = experiment: Inhibition of DNA methylation in human MCF7 cells assessed as decrease in 5-methylcytosine level by ELISA; assay type: cell-based
[9] = target: T1, Histone-lysine N-methyltransferase EHMT2 (Homo sapiens) (UniProt Q96KQ7); experiment: Inhibition of G9a in human MCF7 nuclear extracts assessed as reduction in H3K27 levels at 15 uM after 48 hrs; assay type: cell-based
T1 sequence (whole entry): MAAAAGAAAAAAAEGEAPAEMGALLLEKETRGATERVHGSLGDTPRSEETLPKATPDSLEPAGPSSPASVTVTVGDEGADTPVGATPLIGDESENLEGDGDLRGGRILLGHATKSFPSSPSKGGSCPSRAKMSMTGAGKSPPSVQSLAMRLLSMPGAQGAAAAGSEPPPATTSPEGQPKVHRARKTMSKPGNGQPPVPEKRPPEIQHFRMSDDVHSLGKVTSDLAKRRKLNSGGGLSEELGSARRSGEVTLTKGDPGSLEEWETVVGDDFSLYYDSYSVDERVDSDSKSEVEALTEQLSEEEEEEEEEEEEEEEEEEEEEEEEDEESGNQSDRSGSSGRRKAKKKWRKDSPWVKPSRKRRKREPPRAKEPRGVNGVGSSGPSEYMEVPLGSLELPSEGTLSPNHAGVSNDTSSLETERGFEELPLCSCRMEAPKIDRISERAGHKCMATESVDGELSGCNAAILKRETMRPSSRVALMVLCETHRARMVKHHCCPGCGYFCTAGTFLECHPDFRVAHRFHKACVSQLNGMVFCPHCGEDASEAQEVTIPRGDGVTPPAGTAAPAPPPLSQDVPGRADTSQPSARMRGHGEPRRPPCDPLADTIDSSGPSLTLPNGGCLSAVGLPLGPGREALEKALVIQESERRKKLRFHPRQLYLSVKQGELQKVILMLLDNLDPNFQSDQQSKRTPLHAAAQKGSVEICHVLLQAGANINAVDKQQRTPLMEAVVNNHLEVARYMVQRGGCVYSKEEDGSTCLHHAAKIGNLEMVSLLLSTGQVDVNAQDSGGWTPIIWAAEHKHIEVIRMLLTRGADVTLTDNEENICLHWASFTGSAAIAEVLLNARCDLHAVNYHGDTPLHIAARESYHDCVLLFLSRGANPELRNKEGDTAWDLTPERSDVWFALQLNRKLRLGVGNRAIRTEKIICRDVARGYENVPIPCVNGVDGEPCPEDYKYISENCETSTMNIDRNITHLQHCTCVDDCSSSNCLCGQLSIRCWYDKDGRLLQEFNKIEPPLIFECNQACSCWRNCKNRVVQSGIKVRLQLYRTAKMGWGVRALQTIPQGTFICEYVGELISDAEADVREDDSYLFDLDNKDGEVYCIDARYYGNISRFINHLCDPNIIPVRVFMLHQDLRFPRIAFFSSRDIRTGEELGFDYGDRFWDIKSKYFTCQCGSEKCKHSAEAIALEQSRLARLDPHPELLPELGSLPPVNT

MCF7 [10] = experiment: Inhibition of DNA methylation in human MCF7 cells assessed as reduction in H3K9me3 levels at 15 uM after 48 hrs by Western blot analysis; assay type: cell-based
[11] = Antiproliferative activity against human Ovarian cancer DC#83 cells assessed as cell survival at 20 uM after 72 hrs by MTT assay relative to control; assay type: functional; settings: read-out: Survival
[12] = Antiproliferative activity against human Ovarian cancer DC#110 cells assessed as cell survival at 20 uM after 72 hrs by MTT assay relative to control; assay type: functional; settings: read-out: Survival
[13] = Antiproliferative activity against human Ovarian cancer LA#83 cells assessed as cell survival at 20 uM after 72 hrs by MTT assay relative to control; assay type: functional; settings: read-out: Survival
MCF7 [14] = experiment: Induction of apoptosis in human MCF7 cells assessed as late apoptotic cells at 15 uM after 48 hrs by AnnexinV-FITC staining based flow cytometry (reference value: 7.6 +/- 5.9 %); assay type: functional
[15] = target: T1, Histone-lysine N-methyltransferase EHMT2 (Homo sapiens); experiment: Inhibition of G9a in human MCF7 nuclear extracts assessed as reduction in H3K9 levels at 15 uM after 48 hrs; assay type: cell-based
MCF7 [16] = experiment: Induction of apoptosis in human MCF7 cells assessed as late apoptotic cells at 15 uM after 72 hrs by AnnexinV-FITC staining based flow cytometry (reference value: 11.8 +/- 2.2 %); assay type: functional
MCF7 [17] = experiment: Induction of apoptosis in human MCF7 cells assessed as necrotic cells at 15 uM after 72 hrs by AnnexinV-FITC staining based flow cytometry (reference value: 7.6 +/- 1 %); assay type: functional
MCF7 [18] = experiment: Inhibition of DNA methylation in human MCF7 cells assessed as decrease in methylation of RARbeta DNA by qPCR method; assay type: cell-based
MCF7 [19] = experiment: Induction of apoptosis in human MCF7 cells assessed as viable cells at 15 uM after 48 hrs by AnnexinV-FITC staining based flow cytometry (reference value: 74.4 +/- 9.1 %); assay type: functional; settings: MCF7, 48 h, read-out: Activity
MCF7 [20] = experiment: Antiproliferative activity against human MCF7 cells after 48 to 72 hrs by MTT assay; assay type: functional, cell-based
[21] = Antiproliferative activity against human Ovarian cancer LA#110 cells assessed as cell survival at 20 uM after 72 hrs by MTT assay relative to control; assay type: functional; settings: read-out: Survival
MCF7 [22] = experiment: Cell cycle arrest in human MCF7 cells assessed as accumulation at G2/M phase at 15 uM after 72 hrs by flow cytometry relative to control; assay type: functional
MCF7 [23] = experiment: Inhibition of DNA methylation in human MCF7 cells assessed as reduction in H3K27me3 levels at 3 uM after 48 hrs by Western blot analysis; assay type: cell-based
MCF7 [24] = experiment: Inhibition of DNA methylation in human MCF7 cells assessed as reduction in H3K9me3 levels at 3 uM after 48 hrs by Western blot analysis; assay type: cell-based

Row | SMILES | inhibition (MCF7 [1]) | viability at 15 µM (MCF7 [2]) | IC50 [3] | IC50 (MSTO-211H) | Activity (MCF7 [5]) | Activity (MCF7 [6]) | Activity (MCF7 [7]) | inhibition (MCF7 [8]) | inhibition [9] | inhibition (MCF7 [10]) | viability at 20 µM [11] | viability at 20 µM [12] | viability at 20 µM [13] | Activity (MCF7 [14]) | inhibition [15] | Activity (MCF7 [16]) | Activity (MCF7 [17]) | inhibition (MCF7 [18]) | viability at 15 µM (MCF7 [19]) | viability at 20 µM [21] | further results
1 | CCCCN1C(=O)[C@H]2Cc3c([nH]c4ccccc34)CN2C1=O | 60% | 61.2% | > 20 µM | > 20 µM | 6.4% | 19.5% | 12.2% | Active | inactive | 50% | 91.2% | 86.4% | 64.7% | 11% | Active | 12.1% | 7.2% | Active | 70.4% | 78% | Activity (MCF7 [4]): 3%; IC50 (MCF7 [20]): 32.3 µM
2 | CN1CCN(C(=O)[C@H]2Cc3c([nH]c4ccccc34)[C@@H]3N(C)c4ccccc4C(=O)N23)CC1 | 30% | 54.7% | 9.05 µM | 6.6 µM | 9.6% | 23.3% | 13.6% | Active | Active | 70% | 84.2% | 87.7% | 77.3% | 12.2% | Active | 15.8% | 6.2% | Active | 64.6% | 56.7% | Activity (MCF7 [22]): Active; IC50 (MCF7 [20]): 34.8 µM
3 | COc1cc2nc(N3CCCN(C)CC3)nc(NC3CCN(Cc4ccccc4)CC3)c2cc1OC |  | 65.8% |  |  | 6.3% | 13.5% | 12.6% |  | Active |  | 86.2% | 73% | 57% | 13.8% | Active | 14.3% | 6.3% |  | 67.2% | 50.2% | inhibition (MCF7 [23]): 25%; inhibition (MCF7 [24]): 80%
4 | N[C@@H]1C[C@H]1c1ccccc1.N[C@H]1C[C@@H]1c1ccccc1 [TRANYLCYPROMINE] |  |  |  |  |  |  |  |  |  |  | 102% | 93.6% | 77.5% |  |  |  |  |  |  | 60.6% | 
5 | CCCCN1C(=O)[C@H]2Cc3c(n(CO)c4ccccc34)CN2C1=O | 20% | 52.1% | > 20 µM | > 20 µM | 8.5% | 25.5% | 8.3% | Active | Active | 40% | 101% | 82.2% | 67.8% | 12.1% | Active | 15.2% | 7.2% | Active | 71.1% | 56% | Activity (MCF7 [4]): 3%; IC50 (MCF7 [20]): 30.7 µM
6 | C#Cc1cccc(Nc2ncnc3cc(OCCOC)c(OCCOC)cc23)c1 [ERLOTINIB] |  |  |  |  |  |  |  |  |  |  | 94.5% | 75.3% | 24.7% |  |  |  |  |  |  | 27.7% | 
7 | Cc1nc(Nc2ncc(C(=O)Nc3c(C)cccc3Cl)s2)cc(N2CCN(CCO)CC2)n1 [DASATINIB] |  |  |  |  |  |  |  |  |  |  | 73.1% | 58.7% | 38.3% |  |  |  |  |  |  | 20.5% | 
8 | CCCCN1C(=O)[C@@H]2Cc3c(n(CO)c4ccccc34)CN2C1=O | 40% | 58.6% | > 20 µM | > 20 µM | 4.1% | 20.6% | 13.1% | Active | Active | 50% | 96% | 93.8% | 91.8% | 13.5% | Active | 13.7% | 7.1% | Active | 69.4% | 71.8% | Activity (MCF7 [4]): 3%; IC50 (MCF7 [20]): 38.7 µM
9 | Cc1ccc(-c2cn3c(n2)sc2ccccc23)cc1 | inactive | 45.2% | > 20 µM | > 20 µM | 8.1% | 29% | 18.7% | inactive | inactive | inactive | 90.3% | 80.1% | 70.2% | 11.8% | Active | 21% | 4.8% | inactive | 61.4% | 77.1% | Activity (MCF7 [22]): Active; IC50 (MCF7 [20]): 30.4 µM
10 | CCN(CC)CCNC(=O)c1c(C)[nH]c(/C=C2\C(=O)Nc3ccc(F)cc32)c1C [SUNITINIB] |  |  |  |  |  |  |  |  |  |  | 73.7% | 54.2% | 9.8% |  |  |  |  |  |  | 2.6% | 
11 | C#CCN(C)Cc1ccccc1 [PARGYLINE] |  |  |  |  |  |  |  |  |  |  | 96.7% | 59.1% | 77.7% |  |  |  |  |  |  | 85% | 
12 | CN1C(=O)[C@@]23C[C@]4([C@]56C[C@@]78SS[C@@](CO)(C(=O)N7[C@H]5Nc5ccccc56)N(C)C8=O)c5ccccc5N[C@@H]4N2C(=O)[C@]1(CO)SS3 [CHAETOCIN] |  |  |  |  |  |  |  |  |  |  | 67.8% | -4.22% | -3.25% |  |  |  |  | Active |  | -2.63% | 
